# Values of other authors, collected in US7638678B2, “Animal model for perimenopause and menopause and methods of inducing ovarian failure” (The Arizona Board of Regents, priority 2002, dated 2009).
# Experiments:
# ovarian follicles = conditions: B6C3F1 mice dosed with VCH; cited from earlier work
# [1] = i.p. minipumps versus injection; cited from earlier work
compound,measurement,setting,value
"C=CC1CC=CCC1 (centres unmarked) [VCH, 4-vinylcyclohexene]",Premature ovarian failure in long term studies,ovarian follicles,premature ovarian failure occurred within a year
endostatin,Decrease of the effective dose by continuous administration,[1],8-10 fold
